In brackets after ≈: the same amount, converted by molar mass. Bounds are passed on as bounds.

The nature of data set [1]: Aqueous solubility of the compound. Format: physicochemical.
Another data set concerns the target Cytochrome P450 3A4 (Homo sapiens, UniProt P08684). Description: Inhibition of CYP3A4. The data set is classed as ADME.
In the next data set the target is Cytochrome P450 2C9 (Homo sapiens, UniProt P11712). As to the kind of experiment: Inhibition of CYP2C9. The data set is classed as ADME.
Chain of Cytochrome P450 2C9 (P11712 whole entry): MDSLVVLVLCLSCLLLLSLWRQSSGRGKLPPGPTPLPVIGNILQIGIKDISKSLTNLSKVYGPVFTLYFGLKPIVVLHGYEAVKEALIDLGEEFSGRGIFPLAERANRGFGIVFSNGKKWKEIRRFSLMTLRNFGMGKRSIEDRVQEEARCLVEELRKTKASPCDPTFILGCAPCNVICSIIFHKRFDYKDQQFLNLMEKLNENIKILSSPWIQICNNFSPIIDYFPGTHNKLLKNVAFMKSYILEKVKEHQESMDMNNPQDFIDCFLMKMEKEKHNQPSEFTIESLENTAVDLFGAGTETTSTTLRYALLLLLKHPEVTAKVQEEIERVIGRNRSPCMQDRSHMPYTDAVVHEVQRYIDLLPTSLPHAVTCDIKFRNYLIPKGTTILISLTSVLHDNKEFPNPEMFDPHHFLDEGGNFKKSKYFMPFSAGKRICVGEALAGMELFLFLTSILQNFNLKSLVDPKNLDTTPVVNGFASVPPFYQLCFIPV
A further data set deals with Cytochrome P450 2D6 (Homo sapiens, UniProt P10635). As to the kind of experiment: Inhibition of CYP2D6. The data set is classed as ADME.
Chain of Cytochrome P450 2D6 (P10635 whole entry): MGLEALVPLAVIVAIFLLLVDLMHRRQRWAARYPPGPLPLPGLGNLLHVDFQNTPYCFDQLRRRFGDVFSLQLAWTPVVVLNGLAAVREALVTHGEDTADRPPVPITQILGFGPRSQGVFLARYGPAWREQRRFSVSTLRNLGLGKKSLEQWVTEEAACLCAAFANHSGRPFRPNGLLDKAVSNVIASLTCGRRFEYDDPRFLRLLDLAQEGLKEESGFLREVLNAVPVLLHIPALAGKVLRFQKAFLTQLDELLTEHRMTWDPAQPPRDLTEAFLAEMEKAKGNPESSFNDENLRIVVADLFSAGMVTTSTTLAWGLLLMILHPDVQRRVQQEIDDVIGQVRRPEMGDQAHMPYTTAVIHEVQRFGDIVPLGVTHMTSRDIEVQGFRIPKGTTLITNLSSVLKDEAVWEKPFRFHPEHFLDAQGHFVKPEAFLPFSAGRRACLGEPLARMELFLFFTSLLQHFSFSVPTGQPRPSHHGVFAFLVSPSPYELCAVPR
Data set [2] in a line: Clearance in rat. Particulars: in vivo; call rule not given here. The data set is classed as ADME, organism-based.
Data set [3] addresses T1, Sodium- and chloride-dependent glycine transporter 1 (Homo sapiens, UniProt P48067).
T1 sequence (P48067 whole entry): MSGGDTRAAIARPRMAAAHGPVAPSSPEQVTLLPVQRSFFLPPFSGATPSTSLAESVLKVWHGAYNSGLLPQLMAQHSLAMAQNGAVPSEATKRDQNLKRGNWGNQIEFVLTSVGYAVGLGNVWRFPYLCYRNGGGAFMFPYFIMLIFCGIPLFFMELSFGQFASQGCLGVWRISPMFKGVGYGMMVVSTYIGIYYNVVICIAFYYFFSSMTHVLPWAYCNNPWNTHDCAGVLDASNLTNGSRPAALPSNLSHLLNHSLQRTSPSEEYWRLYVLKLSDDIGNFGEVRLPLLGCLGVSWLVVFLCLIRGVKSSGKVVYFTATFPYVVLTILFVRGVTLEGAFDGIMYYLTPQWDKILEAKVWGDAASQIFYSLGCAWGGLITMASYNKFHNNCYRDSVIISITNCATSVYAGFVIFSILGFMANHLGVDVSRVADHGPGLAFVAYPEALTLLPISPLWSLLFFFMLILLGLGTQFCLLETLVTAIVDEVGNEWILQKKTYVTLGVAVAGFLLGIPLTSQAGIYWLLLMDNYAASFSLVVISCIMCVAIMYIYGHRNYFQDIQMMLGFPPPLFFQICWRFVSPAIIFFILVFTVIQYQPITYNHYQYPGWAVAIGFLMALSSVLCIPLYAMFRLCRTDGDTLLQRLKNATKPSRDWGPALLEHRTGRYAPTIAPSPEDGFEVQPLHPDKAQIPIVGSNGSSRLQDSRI
Description: Inhibition of human GlyT1.

Data set [4] deals with T2, Sodium- and chloride-dependent glycine transporter 1 (Rattus norvegicus, UniProt P28572).
T2 sequence (P28572 whole entry): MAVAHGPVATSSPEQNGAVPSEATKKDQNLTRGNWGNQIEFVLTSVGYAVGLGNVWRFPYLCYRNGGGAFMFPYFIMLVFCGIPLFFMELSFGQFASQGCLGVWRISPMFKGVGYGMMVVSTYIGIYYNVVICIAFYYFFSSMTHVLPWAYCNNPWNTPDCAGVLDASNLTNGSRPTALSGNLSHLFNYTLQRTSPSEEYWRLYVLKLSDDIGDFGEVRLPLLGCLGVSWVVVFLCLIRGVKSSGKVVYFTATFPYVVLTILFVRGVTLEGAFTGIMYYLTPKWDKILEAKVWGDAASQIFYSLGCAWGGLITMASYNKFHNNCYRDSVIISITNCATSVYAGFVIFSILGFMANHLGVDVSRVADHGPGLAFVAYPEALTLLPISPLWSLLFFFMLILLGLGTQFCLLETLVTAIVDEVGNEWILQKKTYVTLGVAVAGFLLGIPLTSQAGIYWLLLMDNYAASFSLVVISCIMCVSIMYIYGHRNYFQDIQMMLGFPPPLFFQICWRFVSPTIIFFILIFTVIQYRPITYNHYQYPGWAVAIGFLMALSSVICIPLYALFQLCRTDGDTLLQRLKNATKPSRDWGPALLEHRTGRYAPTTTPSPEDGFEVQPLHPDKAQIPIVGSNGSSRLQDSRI
Description: Inhibition of rat GlyT1.

Data set [5] is described as follows: Partition coefficient, log P of the compound. Particulars: octanol/water. Format: physicochemical.
A short description of data set [6]: Half life in rat. The data set is classed as ADME, organism-based. The settings on record: in vivo.
Data set [7] in a line: Apparent permeability in Caco-2 cells. The settings on record: human. Format: ADME, cell-based.
Data set [8] relates to Caco-2. As to the kind of experiment: Ratio of permeability from basolateral to apical over apical to basolateral side of Caco-2 cell expressing mouse p-glycoprotein. Format: ADME, cell-based. Particulars: human.
In data set [9] the test system is Caco-2. Description: Ratio of permeability from basolateral to apical over apical to basolateral side of Caco-2 cell expressing human p-glycoprotein. The data set is classed as ADME, cell-based.
The target of data set [10] is T3, Sodium- and chloride-dependent taurine transporter (Homo sapiens, UniProt P31641).
T3 sequence (P31641 whole entry): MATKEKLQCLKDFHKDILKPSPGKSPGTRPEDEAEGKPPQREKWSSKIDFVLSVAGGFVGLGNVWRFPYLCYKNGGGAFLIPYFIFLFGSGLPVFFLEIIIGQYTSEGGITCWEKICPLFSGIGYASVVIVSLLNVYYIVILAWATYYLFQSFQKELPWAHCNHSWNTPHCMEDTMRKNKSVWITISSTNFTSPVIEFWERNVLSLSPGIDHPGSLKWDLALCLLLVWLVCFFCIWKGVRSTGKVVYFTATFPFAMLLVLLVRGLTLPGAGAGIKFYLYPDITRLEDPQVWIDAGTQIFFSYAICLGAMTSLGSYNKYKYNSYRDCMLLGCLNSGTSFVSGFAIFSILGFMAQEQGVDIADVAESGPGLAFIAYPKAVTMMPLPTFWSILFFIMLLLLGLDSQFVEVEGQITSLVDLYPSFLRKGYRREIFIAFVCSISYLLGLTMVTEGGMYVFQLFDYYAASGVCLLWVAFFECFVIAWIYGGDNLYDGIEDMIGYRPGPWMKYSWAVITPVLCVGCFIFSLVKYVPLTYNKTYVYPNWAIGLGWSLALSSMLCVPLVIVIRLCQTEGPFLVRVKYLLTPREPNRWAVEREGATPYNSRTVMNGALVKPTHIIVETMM
Description: Inhibition of human TauT.

Chain of Cytochrome P450 3A4 (P08684 whole entry): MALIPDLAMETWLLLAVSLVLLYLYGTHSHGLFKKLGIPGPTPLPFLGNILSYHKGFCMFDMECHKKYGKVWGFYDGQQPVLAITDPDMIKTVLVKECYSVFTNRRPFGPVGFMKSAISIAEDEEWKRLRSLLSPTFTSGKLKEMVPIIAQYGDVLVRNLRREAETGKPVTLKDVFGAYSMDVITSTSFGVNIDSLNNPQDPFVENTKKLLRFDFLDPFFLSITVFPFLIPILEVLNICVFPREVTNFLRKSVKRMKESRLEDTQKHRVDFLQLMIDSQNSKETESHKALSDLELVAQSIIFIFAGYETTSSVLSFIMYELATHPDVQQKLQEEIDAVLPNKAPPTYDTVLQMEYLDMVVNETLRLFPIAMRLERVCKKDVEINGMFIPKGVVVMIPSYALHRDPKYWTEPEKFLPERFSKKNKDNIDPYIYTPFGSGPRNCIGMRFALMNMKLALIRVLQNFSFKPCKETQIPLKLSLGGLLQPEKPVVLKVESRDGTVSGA

On to `CCCS(=O)(=O)N1CCC(CNC(=O)c2ccccc2Cl)(C(=O)N2CCOCC2)CC1`, for which, in [1], the solubility came to 10000 µg/mL (≈ 21.2 mM). Further, the Activity result at Cytochrome P450 3A4, at Cytochrome P450 2C9 and on Cytochrome P450 2D6 was “Not Active” each time. Besides, in data set [2], the clearance turned out to be 18 mL/min/kg. The IC50 in [3] was 9.7 nM; in data set [4], 18.3 nM; in data set [10], > 30 µM. The logP in data set [5] is < 1.4. In addition, in data set [6], the half-life was 18 min. In data set [7], the apparent permeability coefficient (Papp) is > 22 ×10⁻⁶ cm/s. Besides, the Ratio is reported as 8.9 in the data set with Caco-2 [8] and 10.6 with Caco-2 [9].

`CCCS(=O)(=O)N1CCC(CNC(=O)c2c(F)ccc(Cl)c2F)(C(=O)N2CCOCC2)CC1` showed a solubility in data set [1] of 10000 µg/mL (≈ 19.7 mM). Also, the Activity entry on Cytochrome P450 3A4, at Cytochrome P450 2C9 and on Cytochrome P450 2D6 was “Not Active” throughout. Besides, the clearance in [2] was found to be 18 mL/min/kg. The figures for the IC50 in data set [3], in data set [4] and in data set [10] were 8.4 nM, 19.7 nM and > 30 µM, respectively. For the same compound, the log partition coefficient (logP) in data set [5] was < 1.4. This compound also gave a half-life in data set [6] of 18 min. In addition, in [7], the apparent permeability (Papp) is > 22 ×10⁻⁶ cm/s. For the same compound, the Ratio is reported as 8.9 in the data set on Caco-2 [8] and 10.6 in the data set with Caco-2 [9].

Take `CCCS(=O)(=O)N1CCC(CNC(=O)c2ccc(F)cc2Cl)(C(=O)N2CCOCC2)CC1`: the solubility in [1] was determined as 10000 µg/mL (≈ 20.4 mM). Moreover, the Activity entry at Cytochrome P450 3A4, on Cytochrome P450 2C9 and on Cytochrome P450 2D6 was “Not Active” throughout. This compound also yielded a clearance in [2] of 18 mL/min/kg. The values for the IC50 in data set [3], in data set [4] and in data set [10] were 12.6 nM, 10.1 nM and > 30 µM, respectively. Besides, in [5], the logP was < 1.4. The half-life in data set [6] is 18 min. In addition, in data set [7], the Papp is > 22 ×10⁻⁶ cm/s. For the same compound, the Ratio is given as 8.9 in the data set with Caco-2 [8] and 10.6 in the data set on Caco-2 [9].

In turn, `CCCS(=O)(=O)N1CCC(CNC(=O)c2cc(F)c(Cl)cc2Cl)(C(=O)N2CCOCC2)CC1` had a solubility in data set [1] of 10000 µg/mL (≈ 19.1 mM). For the same compound, the Activity entry on Cytochrome P450 3A4, at Cytochrome P450 2C9 and on Cytochrome P450 2D6 was “Not Active” throughout. This compound also showed a clearance in [2] of 18 mL/min/kg. For the same compound, the 50% inhibitory concentration (IC50) in data set [3] was 6.3 nM; in data set [4] it was 7.4 nM; in [10], > 30 µM. For the same compound, the logP in data set [5] is < 1.4. This compound also showed a half-life in [6] of 18 min. Moreover, the Papp in [7] was > 22 ×10⁻⁶ cm/s. The figures for the Ratio in the data set on Caco-2 [8] and in the data set on Caco-2 [9] were 8.9 and 10.6, respectively.

In turn, `CCCS(=O)(=O)N1CCC(CNC(=O)c2c(F)cccc2Cl)(C(=O)N2CCOCC2)CC1` came in with a solubility in data set [1] of 10000 µg/mL (≈ 20.4 mM). Besides, the Activity result at Cytochrome P450 3A4, on Cytochrome P450 2C9 and on Cytochrome P450 2D6 was “Not Active” each time. In data set [2], this compound had a clearance of 18 mL/min/kg. Besides, the IC50 in data set [3] was 12.5 nM; in [4], 22.1 nM; in data set [10], > 30 µM. In data set [5], the logP was < 1.4. In addition, the half-life in [6] is 18 min. In addition, in [7], the Papp was > 22 ×10⁻⁶ cm/s. The Ratio in the data set on Caco-2 [8] came out at 8.9; with Caco-2 [9], 10.6.

For the compound `CCCS(=O)(=O)N1CCC(CNC(=O)c2ccc(Cl)cc2Cl)(C(=O)N2CCOCC2)CC1`, in [1], the solubility stood at 18000 µg/mL (≈ 35.5 mM). In addition, the Activity result on Cytochrome P450 3A4, on Cytochrome P450 2C9 and on Cytochrome P450 2D6 was “Not Active” in each case. In addition, the clearance in [2] is 20.5 mL/min/kg. The results for the IC50 in data set [3], in data set [4] and in [10] were 2.4 nM, 3.2 nM and > 30 µM, respectively. For the same compound, the logP in data set [5] worked out at 1.4. For the same compound, the half-life in [6] is 22.2 min. The Papp in [7] turned out to be 23.6 ×10⁻⁶ cm/s. For the same compound, the Ratio in the data set with Caco-2 [8] is 11.4; in the data set with Caco-2 [9] it was 17.9.

The values are drawn from ChEMBL document CHEMBL1145293, “Synthesis and SAR of GlyT1 inhibitors derived from a series of N-((4-(morpholine-4-carbonyl)-1-(propylsulfonyl)piperidin-4-yl)methyl)benzamides” (Bioorg Med Chem Lett, 2006).
